The values below come from patent EP4737449A1 (Changchun Genescience Pharmaceutical Co., Ltd., priority 2023, dated 2025).

One series relates to BXPC-3 cells. Kind of series: BXPC-3 3D cell proliferation assay (methylcellulose, CTG, 7 days). In kind it is cell-based. As to conditions: Homo sapiens, 168 h, drug treatment for 7 days. As for the experimental part: 1 g of methylcellulose was weighed and placed into a glass ware and autoclaved. After cooling, 100 mL of the corresponding culture medium was added, the mixture was mixed vigorously, and stirred on a 4°C magnetic stirrer; the mixture was completely dissolved after 48 h and stored at 4°C.
The cells were resuscitated with the corresponding culture medium, and were maintained to grow to the logarithmic growth phase. The cell suspension was collected and centrifuged at 1000 rpm for 5 min. After centrifugation was completed, the supernatant was removed and the cells were re-suspended with an appropriate amount of culture medium. […]
After adding 10 µL of culture medium containing the vehicle to each well, the CTG plate was read. […] The cell plate was placed at room temperature for 10 min to stabilize the luminescent signal, and the luminescent value was read using EnVision. […]
The CTG reagent was thawed and the cell plate was equilibrated to room temperature for 30 min. […] The cell plate was placed at room temperature for 10 min to stabilize the luminescent signal, and the luminescent value was read using EnVision.
Cell viability was calculated using the following formula: (Vsample- VBlank) /(Vvehicle control- VBlank) ×100%. […] The S-shaped dose-survival curve was plotted and IC50 calculated by GraphPad Prism software using non-linear regression model.

The subject of series [1] is human-derived lung cancer LU5269 subcutaneous xenograft. Kind of series: Efficacy in human-derived lung cancer LU5269 subcutaneous xenograft model. In kind it is in vivo, NOD/SCID mice. As to conditions: PO, QD*21. How it is done:
Tumor tissues were collected from LU5269 lung cancer xenograft model bearing mice, cut into tumor masses with a diameter of 2-3 mm, and seeded subcutaneously in the right anterior scapula of NOD/SCID mice.
Before administration, all animals were weighed and tumor volume was measured using a vernier caliper. When the tumor grew to have an average volume of about 140 mm^3, group-based drug administration was performed based on tumor size (vehicle: 0.2% HPC + 0.5% Tween 80). Since tumor volume can affect the effectiveness of treatment, random grouping design was used to group the mice according to tumor volume to ensure that the tumor volumes in different groups were similar. Tumor volume calculation formula: Tumor volume (mm^3) = 1/2 × (a ×b^2) (wherein a denotes the long diameter and b denotes the short diameter).
(§1) Table 12 Route, dose and regimen of administration in the subcutaneous xenograft model

A short description of series [2]: Associated plasma PK in the LU5269 xenograft study. The format is in vivo, NOD/SCID mice. As to conditions: mouse, PO, QD*21, plasma after the last administration. How it is done:
At the endpoint of the experiment, plasma samples from groups G2-G6 were collected: plasma was collected from the first 3 mice in each group at 0 h, 1 h, 2 h, and 4 h after the last administration; plasma was collected from the last 3 mice in each group at 0.5 h, 6 h, 9 h, and 24 h after the last administration.
as §1

The nature of series [3]: Pharmacokinetic study in SD rats. The format is in vivo. The following applies: rat, plasma; for AUC(0-t) at 24 h / AUC(0-t): read-out: AUC0-24h. As for the experimental part:
On the day of administration, the test sample was prepared using a 2% HPC + 5% solutol aqueous solution vehicle formula, and the drug solution was prepared and kept ready for use.
The PO group was given the designated dose. The animals in the oral administration group were fasted overnight, allowed free access to water, and returned to food 3 hours after administration.
The animals were weighed before administration, and the dose was calculated based on the body weight. The drug was administered once via PO on the day of administration. After administration in the PO group, blood was collected from the jugular vein at 0.083 h, 0.25 h, 0.5 h, 1.0 h, 2.0 h, 4.0 h, 6.0 h, 8.0 h and 24 h, about 200 µL each time, placed in EDTA-K2 anticoagulation blood collection tubes, centrifuged at 4000 rpm for 10 min (4°C), and plasma was separated within 1 h. The plasma was drawn into labeled EP tubes (the label should at least indicate the subject code, animal number, collection time, collection date, etc.), and stored at -80°C for testing. The process from blood collection to centrifugation was carried out in ice bath. The concentration of the test sample in SD rat plasma was detected using validated LC-MS/MS.

pIC50: −log10 of the molar value. Where two headings read alike, the source gives them in different places.

Regarding `CN1CC[C@@H](Nc2cccc3c(CC(F)(F)F)c(C#CCNC(=O)c4cnn(C(C)(C)C)c4N)nn23)[C@@H](F)C1` [Compound 047], the pIC50 with BXPC-3 cells was 6.74. Moreover, the TGI in series [1] (50mpk) is reported as 82%; in series [1] (75mpk), 111%; in series [1] (100 mpk) it was 119%; in series [1] (150mpk), 119%. For the same compound, the AUC(0-t) in series [2] (50 mg/kg, 50mpk) stood at 11.7 µg·h/mL; in series [2] (75 mg/kg, 75mpk), 24.4 µg·h/mL; in series [2] (100 mg/kg, 100 mpk), 39.4 µg·h/mL; in series [2] (150 mg/kg, 150mpk) it was 68 µg·h/mL. The Cmax in series [2] (50 mg/kg, 50mpk) amounted to 1690 ng/mL; in series [2] (75 mg/kg, 75mpk) it was 2590 ng/mL; in series [2] (100 mg/kg, 100 mpk) it was 4440 ng/mL; in series [2] (150 mg/kg, 150mpk), 5550 ng/mL; in series [3] (50 mg/kg, po 50 mpk) it was 13200 ng/mL; in series [3] (300 mg/kg, po 300 mpk) it was 32800 ng/mL. Further, the half-life in series [2] (50 mg/kg, 50mpk) was 2.2 h; in series [2] (100 mg/kg, 100 mpk), 1.9 h; in series [2] (150 mg/kg, 150mpk), 2.6 h. For the same compound, the AUC(0-t) at 24 h in series [3] (50 mg/kg, po 50 mpk) amounted to 113 µg·h/mL; in series [3] (300 mg/kg, po 300 mpk) it was 431 µg·h/mL.

For the compound `CNC(=O)c1ccc(NCC#Cc2cc3c(N[C@@H]4CCN(C)C[C@@H]4F)cccc3n2CC(F)(F)F)c(OC)c1` [Control compound, reference compound], the pIC50 in the series on BXPC-3 cells was 6.11. Besides, the TGI in series [1] (100 mpk) came out at 119%. Moreover, the AUC(0-t) worked out at 413 µg·h/mL in series [2] (NOD/SCID, 100 mg/kg, 100 mpk); 148 µg·h/mL in series [3] (50 mg/kg, po 50 mpk); 416 µg·h/mL in series [3] (300 mg/kg, po 300 mpk). For the same compound, the maximum concentration (Cmax) amounted to 24300 ng/mL in series [2] (NOD/SCID, 100 mg/kg, 100 mpk); 11500 ng/mL in series [3] (50 mg/kg, po 50 mpk); 25400 ng/mL in series [3] (300 mg/kg, po 300 mpk).
